Experimental findings from patent publication US7220743B2, “Heterocyclic CB1 receptor antagonists” (Hoffmann-La Roche Inc., priority 2005, dated 2007) are described below.

The target of this assay is T1, cannabinoid CB1 receptors (Homo sapiens, UniProt P21554).
T1 construct: expressed in transfected cells; host or cells: HEK cells, transient, Semliki Forest Virus system; membrane preparation
Nature of the assay: Affinity for cannabinoid CB1 receptors, [3H]-CP-55,940 radioligand binding on HEK cell membranes. The conditions noted are these: CB1 receptor affinity, [3H]-CP-55,940, HEK membranes. As to the method:
The affinity of the compounds of the invention for cannabinoid CB1 receptors was determined using membrane preparations of human embryonic kidney (HEK) cells in which the human cannabis […] receptor is transiently transfected using the Semliki Forest Virus system in conjunction with [3H]-CP-55,940 as radioligand. After incubation of a freshly prepared cell membrane preparation with the [3H]-ligand, with or without addition of compounds of the invention, separation of bound and free ligand was performed by filtration over glassfiber filters. Radioactivity on the filter was measured by liquid scintillation counting.

T1 sequence (P21554 whole entry): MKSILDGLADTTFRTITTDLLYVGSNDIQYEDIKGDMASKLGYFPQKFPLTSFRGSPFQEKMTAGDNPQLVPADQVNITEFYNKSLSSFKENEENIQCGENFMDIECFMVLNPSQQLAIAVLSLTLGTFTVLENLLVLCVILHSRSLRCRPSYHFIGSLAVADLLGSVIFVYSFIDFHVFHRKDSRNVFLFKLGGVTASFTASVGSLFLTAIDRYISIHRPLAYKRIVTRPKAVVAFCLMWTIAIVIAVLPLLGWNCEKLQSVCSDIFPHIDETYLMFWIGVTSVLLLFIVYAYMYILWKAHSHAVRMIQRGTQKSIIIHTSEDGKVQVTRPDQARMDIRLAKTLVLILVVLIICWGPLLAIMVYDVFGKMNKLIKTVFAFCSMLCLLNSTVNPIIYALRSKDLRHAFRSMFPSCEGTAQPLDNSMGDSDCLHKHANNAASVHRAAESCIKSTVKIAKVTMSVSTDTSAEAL

As to `O=C(c1cc2c(cc1F)OC1(O2)c2ccccc2C=Cc2ccccc21)N1CCOCC1` [Example 3, 4-[(6-fluoro-spiro[1,3-benzodioxole-2,5′-[5H]dibenzo[a,d]cyclohepten]-5-yl)carbonyl]-morpholine], the 50% inhibitory concentration (IC50) (in general, the midpoint of a concentration-inhibition curve) turned out to be 6 nM. That is a single-digit nanomolar value.
